For orientation: solubility means the concentration that dissolves in the medium under given conditions. A low value points to a poorly soluble substance.

Data set [1] deals with human sperm. Briefly: Reduction of sperm motility (RSM) high-throughput phenotypic assay. As to conditions: for EC50: Homo sapiens. Format: cell-based. The procedure: Using our previously established phenotypic human sperm motility screening platform, we screened a large subset (62,621 compounds) of one of our in-house diversity libraries (National Phenotypic Screening Centre (NPSC) Diversity Set) (Figure A,B). Briefly, human sperm are collected, isolated from semen, distributed into 384-well plates with test compounds, time-lapse images of sperm movement are recorded using a high-content imager, and progressive motility parameters are calculated using custom data analysis software. Sperm motility is complicated, and the mechanisms underpinning its regulation are not fully understood. Progressive motility, which is a measurement of the movement of forward progression of sperm, is most closely linked to sperm quality, and the percentage of progressively motile sperm compared to control is therefore the parameter utilized during the work described in this paper. […]
We used an HTS screening platform to assess the motility of live human spermatozoa. The platform and its development are described in detail in Gruber et al. , and summarized below in brief. The platform was used to screen compound libraries specifically focusing on reduction in motility. Interesting compounds were examined in further detail as possible starting points for a medicinal chemistry program. The experimental design is illustrated in Figure .
Donors were local to the Dundee area, over the age of 18, and had no known fertility problems and normal sperm concentration, motility and semen characteristics according to WHO 2021 criteria. Special category personal data for donors, such as ethnic origin, was not recorded in accordance with ethical approval and UK GDPR. Samples were obtained by masturbation, after sexual abstinence of 2–5 days, and delivered to the research laboratory within one h of production. Samples were allowed to liquefy at 37 °C for 15–30 min prior to preparation by discontinuous density gradient centrifugation (DGC). […] A minimum of 3 prepared donor samples were routinely pooled to reduce donor-to-donor variability for primary screening assays. Pooled samples were incubated for 3 h at 37 °C under noncapacitating conditions.
In brief, screening batches of cells were transferred to a robotic platform (HighRes Biosolutions Inc.) and maintained during the screen at 37 °C at 5% CO2. Assay-ready 384-well plates containing compounds were prepared prior to the screen and filled with approximately 10,000 spermatozoa (20 μL) per well using a liquid handling system (MultiDrop Combi; ThermoFisher). These plates were incubated for 10 min prior to imaging. The HTS system utilized a Yokogawa CV7000 Cell Voyager high-throughput microscope to record time-lapse images from 2 positions in each well. An adaptation of a tracking algorithm, Trackpy v0.4.1 was utilized to track individual spermatozoa within each well and obtain kinematic parameters. Within the compound-test plates, DMSO was used as the vehicle control.
All steps were performed as previously described. , In summary, data from every compound well were normalized to those from in-plate DMSO controls (wells containing the same amount of DMSO as compound wells). Two positions were recorded in every well, and the average of those positions was used for calculating % of control (median value/DMSO median) × 100. Each plate contained 16 DMSO control wells. Median curvilinear velocity (VCL) was used as the primary readout for the NPSC Diversity Set screened at 6 μM, and percentage progressive motility (PM) was used for all other libraries screened. Hits from the primary screening were chosen based on the % change compared to the control. In these experiments, an RSM of ≥20% compared to negative controls (DMSO) was chosen as a cutoff for potential progression.
In a screening program of this scale, a significant number of compounds are likely to have a negative effect on sperm motility, but a number will show general toxicity. […]

The subject of data set [2] is HepG2 cells. Briefly: HepG2 cytotoxicity assay (resazurin, 72 h). Format: cell-based, human. As to conditions: Homo sapiens, HepG2, 72 h; read-out: HepG2 pEC50 (converted). An excerpt: Our overarching aims for investigating our chemical series and deciding which ones had the potential for further progression were to achieve adequate potency in our motility assay, suitable solubility, and minimal cytotoxicity in HepG2 cells. This third point was often the most challenging, as multiple series had cytotoxicity in HepG2 cells. This observation is perhaps not surprising; many potential targets in sperm cells can also be found in somatic cells. Our cytotoxicity assay is run with an incubation time of 72 h, to give time for gross cytotoxic effects to become apparent.
Compound dilution curves were plated directly using a Labcyte Echo 550 acoustic dispenser (125 nL) in 384-well white clear-bottom plates (Greiner). HepG2 cells (ATCCHepG2 HB-8065) were cultured in minimum essential medium (supplemented with glutamax) with 10% FCS and plated (25 μL) using a WellMate dispenser ([…]) and incubated for 72 h. Doxorubicin was used as a positive control drug. Resazurin was then added to each well at a final concentration of 45 μM, and fluorescence was measured using a PHERAstar LS (BMG Labtech) after 4 h of further incubation (excitation of 528 nm and emission of 590 nm). Raw data were normalized to controls and expressed as % growth.
Figure S2: Concentration-response curves from high throughput HepG2 viability assay. Each compound was tested in duplicate and the curves of each replicate are shown. The reported values in the tables are an average of the 2 pEC50 values obtained. […]
determine 0% effect, positive control used to determine 100% effect).
Hit compounds 1a, 6b and 7a were repurchased from commercial suppliers including enamine and […]
In general terms: The colour change of resazurin is a common sign of viable cells or microbes.

Data set [3] is described as follows: Aqueous solubility. It counts as physicochemical.
[4] abbreviates: 10 min, 10 min incubation, reduction of progressive sperm motility relative to control, reported <X (neg. log of top concentration) if largest reduction <70%, read-out: RSM pEC50 10 mins (converted).
[5] abbreviates: 3 h incubation, reduction of progressive sperm motility relative to control, reported <X if largest reduction <70%, read-out: RSM pEC50 3 hrs (converted).
[6] abbreviates: 6 h incubation, reduction of progressive sperm motility relative to control, reported <X if largest reduction <70%, read-out: RSM pEC50 6 hrs (converted).

In brackets after ≈: the same amount, converted by molar mass. Where two headings read alike, the source gives them in different places. Some results are limits rather than exact numbers.

“2-(Phenoxymethyl)-N-(4-(pyridin-2-yl)thiazol-2-yl)benzamide [Compound 3a]”: the “RSM pEC50 10 mins” value in data set [1] (10 min incubation, reduction of progressive sperm motility relative to control, reported <X (neg. log of top concentration) if largest reduction <70%) is given as less than 4.5. In addition, in data set [1] (3 h incubation, reduction of progressive sperm motility relative to control, reported <X if largest reduction <70%), the “RSM pEC50 3 hrs” value is listed as 5.0. In addition, in data set [1] (6 h incubation, reduction of progressive sperm motility relative to control, reported <X if largest reduction <70%), the “RSM pEC50 6 hrs” value is listed as 5.3.
Regarding `O=C(Nc1ccc([N+](=O)[O-])cc1Cl)c1cc(Cl)ccc1O` [Compound 1a, Niclosamide, reference compound], in data set [1], the “difference between pEC50 in the sperm motility assay and pEC50 in the HepG2 cytotoxicity assay” value is 0.5 log units. Moreover, the results for the EC50 in data set [1] (setting [4]) and in data set [2] were 1 µM and 3.16 µM, respectively. In data set [3], the solubility is 4.5 µM (≈ 1.47 µg/mL).
As for `NCCN(C(=O)c1ccc(Cl)cc1Cl)c1ccc(OCc2ccc(Cl)cc2)cc1` [Compound 1b, N-(2-Aminoethyl)-2,4-dichloro-N-(4-((4-chlorobenzyl)oxy)phenyl)benzamide], the EC50 in data set [1] (setting [4]) was 12.6 µM; in data set [1] (setting [5]) it was 20 µM; in data set [1] (setting [6]), 10 µM; in data set [2], 5.01 µM. Further, the solubility in data set [3] turned out to be 53 µM (≈ 23.8 µg/mL).
`Cc1cc(NC(=O)c2cc(Cl)ccc2O)ccc1C#N` [Compound 1c]: the EC50 in data set [1] (setting [4]) was 3.98 µM; in data set [2] it was 25.1 µM. The compound also showed a solubility in data set [3] of 60 µM (≈ 17.2 µg/mL).
Regarding `N#Cc1ccc(NC(=O)c2cc(Cl)ccc2O)cc1F` [Compound 1d], the EC50 is 2.51 µM in data set [1] (setting [4]) and 6.31 µM in data set [2]. The compound also had a solubility in data set [3] of 35 µM (≈ 10.2 µg/mL).
`N#Cc1ccc(NC(=O)c2ccccc2)cc1Cl` [Compound 1i]: the values for the EC50 in data set [1] (setting [4]) and in data set [2] were greater than 20 µM and 39.8 µM, respectively.
As for `NCCN(C(=O)c1ccc(F)cc1Cl)c1ccc(Cl)cc1` [Compound 1m], the EC50 was greater than 31.6 µM in data set [1] (setting [4]), greater than 31.6 µM in data set [1] (setting [5]), greater than 31.6 µM in data set [1] (setting [6]) and 63.1 µM in data set [2].
For `O=C(Nc1nc(C2CC2)cs1)Nc1ccc(F)cc1F` [Compound 3h], the EC50 in data set [1] (setting [4]) is greater than 31.6 µM; in data set [1] (setting [5]), greater than 31.6 µM; in data set [1] (setting [6]), greater than 31.6 µM; in data set [2] it was 63.1 µM.
Consider `O=C(Nc1nc(-c2ccccn2)co1)Nc1ccc(F)cc1F` [Compound 3n], for which the EC50 in data set [1] (setting [4]) was greater than 31.6 µM; in data set [1] (setting [5]) it was greater than 31.6 µM; in data set [1] (setting [6]), greater than 31.6 µM; in data set [2] it was greater than 100 µM.
`CCN(CC)Cc1cc(Nc2ccnc3cc(Cl)ccc23)ccc1O` [Compound 5a, 4-((7-Chloroquinolin-4-yl)amino)-2-((diethylamino)methyl)phenol, reference compound]: the EC50 in data set [1] (setting [4]) is greater than 31.6 µM; in data set [1] (setting [5]), greater than 31.6 µM; in data set [1] (setting [6]), 0.501 µM; in data set [2], 20 µM.
Take `Oc1ccc(Nc2ccnc3cc(Cl)ccc23)cc1CN1CCCC1` [Compound 5b]: the EC50 is greater than 31.6 µM in data set [1] (setting [4]), greater than 31.6 µM in data set [1] (setting [5]), 0.2 µM in data set [1] (setting [6]) and 12.6 µM in data set [2].
For the compound `Oc1ccc(Nc2ccnc3cc(Cl)ccc23)cc1CN1CCNCC1` [Compound 5c], the EC50 in data set [1] (setting [4]) was greater than 31.6 µM; in data set [1] (setting [5]), greater than 31.6 µM; in data set [1] (setting [6]) it was 0.794 µM; in data set [2], 12.6 µM.
As for `Fc1ccc(Nc2ccnc3cc(Cl)ccc23)cc1CN1CCCC1` [Compound 5h], the EC50 in data set [1] (setting [4]), in data set [1] (setting [5]) and in data set [1] (setting [6]) was greater than 31.6 µM throughout.
Regarding `Cc1cc(C)nc(-n2nc(C)cc2Nc2ccccc2)n1` [Compound 6a, 1-(4,6-dimethylpyrimidin-2-yl)-3-methyl-N-phenyl-1H-pyrazol-5-amine], the EC50 was greater than 31.6 µM in data set [1] (setting [4]), 5.01 µM in data set [1] (setting [5]) and 1.58 µM in data set [1] (setting [6]).
On to `O=C1COC2(CCN(Cc3ccc(F)cc3)CC2)CN1` [Compound 8a, 9-(4-Fluorobenzyl)-1-oxa-4,9-diazaspiro[5.5]undecan-3-one], for which the EC50 in data set [1] (setting [4]) was 12.6 µM; in data set [1] (setting [5]), 2 µM; in data set [1] (setting [6]), 0.794 µM; in data set [2], greater than 100 µM.
`O=C1COC2(CCN(Cc3ccncc3)CC2)CN1` [Compound 8b]: the values for the EC50 in data set [1] (setting [4]), in data set [1] (setting [5]) and in data set [1] (setting [6]) were 15.8 µM, 1.26 µM and 0.501 µM, respectively.
In the same order, the values of `O=C1COC2(CCN(Cc3cccnc3)CC2)CN1` [Compound 8c] are greater than 31.6 µM, 6.31 µM and 1.58 µM.
As for `O=C1COC2(CCN(Cc3ccsc3)CC2)CN1` [Compound 8d], the EC50 in data set [1] (setting [4]) was greater than 31.6 µM; in data set [1] (setting [5]), 2 µM; in data set [1] (setting [6]), 1 µM.
With `O=C1COC2(CCN(Cc3ccoc3)CC2)CN1` [Compound 8e], the EC50 in data set [1] (setting [4]) was greater than 31.6 µM; in data set [1] (setting [5]) it was 3.16 µM; in data set [1] (setting [6]), 1.26 µM.
Regarding `O=C1COC2(CCN(Cc3ccco3)CC2)CN1` [Compound 8f], the EC50 was greater than 31.6 µM in data set [1] (setting [4]), greater than 31.6 µM in data set [1] (setting [5]) and 25.1 µM in data set [1] (setting [6]).
On to `Cc1ccc(CN2CCC3(CC2)CNC(=O)CO3)cc1` [Compound 8g], for which the EC50 in data set [1] (setting [4]), in data set [1] (setting [5]) and in data set [1] (setting [6]) was greater than 31.6 µM in each case.
`CN1CC2(CCN(Cc3ccc(F)cc3)CC2)OCC1=O` [Compound 8h]: the EC50 is greater than 31.6 µM in data set [1] (setting [4]), greater than 31.6 µM in data set [1] (setting [5]), greater than 31.6 µM in data set [1] (setting [6]) and greater than 100 µM in data set [2].
As to `NC(=O)N1CCC2(CCN(Cc3cccc(F)c3)CC2)CC1` [Compound 9a, 9-(3-Fluorobenzyl)-3,9-diazaspiro[5.5]undecane-3-carboxamide], the EC50 in data set [1] (setting [4]) is greater than 31.6 µM; in data set [1] (setting [5]) it was 6.31 µM; in data set [1] (setting [6]), 3.98 µM; in data set [2], greater than 100 µM.
Turning to `CC(=O)N1CCC2(CCN(Cc3cccc(F)c3)CC2)CC1` [Compound 9b], the EC50 in data set [1] (setting [4]), in data set [1] (setting [5]) and in data set [1] (setting [6]) was greater than 31.6 µM throughout.
Consider `CNC(=O)N1CCC2(CCN(Cc3cccc(F)c3)CC2)CC1` [Compound 9c], for which the EC50 in data set [1] (setting [4]), in data set [1] (setting [5]) and in data set [1] (setting [6]) was greater than 31.6 µM in each case.
Consider `Fc1cccc(CN2CCC3(CCNCC3)CC2)c1` [Compound 9d], for which the EC50 in data set [1] (setting [4]) was greater than 31.6 µM; in data set [1] (setting [5]), greater than 31.6 µM; in data set [1] (setting [6]), greater than 31.6 µM; in data set [2], 63.1 µM.
As for `NC(=O)N1CCC2(CCN(Cc3ccc(F)cc3)CC2)CC1` [Compound 9e], the EC50 in data set [1] (setting [4]), in data set [1] (setting [5]) and in data set [1] (setting [6]) was greater than 31.6 µM throughout.

Source of the values: article PMC12771125, “Compounds Reducing Human Sperm Motility as Potential Nonhormonal Contraceptives Identified Using a High-Throughput Phenotypic Screening Platform” (ACS Omega, 2025).
